Measured values taken from ChEMBL document CHEMBL1135854, “Absorption studies on aminoglycoside binding to the packaging region of human immunodeficiency virus type-1” (Bioorg Med Chem Lett, 2002).

System: Human immunodeficiency virus 1
Assay: Binding to 176-mer RNA from the packaging region of HIV-1 (LAI) and value of binding constant K is determined
Type: functional

Compound	K
N=C(N)NCC1OC(OC2C(CO)OC(OC3C(O)C(NC(=N)N)CC(NC(=N)N)C3OC3OC(CNC(=N)N)C(O)C(O)C3NC(=N)N)C2O)C(NC(=N)N)C(O)C1O (stereo not given)	100000 M⁻¹
NCC1OC(OC2C(CSCCNc3c4ccccc4nc4ccccc34)OC(OC3C(O)C(N)CC(N)C3OC3OC(CN)C(O)C(O)C3N)C2O)C(N)C(O)C1O (stereo not given)	16000 M⁻¹
NC[C@@H]1O[C@H](O[C@H]2[C@@H](O)[C@H](O[C@@H]3[C@@H](O)[C@H](N)C[C@H](N)[C@H]3O[C@H]3O[C@H](CN)[C@@H](O)[C@H](O)[C@H]3N)O[C@@H]2CO)[C@H](N)[C@@H](O)[C@@H]1O	120000 M⁻¹
NC[C@@H]1O[C@H](O[C@H]2[C@@H](O)[C@H](O[C@@H]3[C@@H](O)[C@H](N)C[C@H](N)[C@H]3O[C@H]3O[C@H](CO)[C@@H](O)[C@H](O)[C@H]3N)O[C@@H]2CO)[C@H](N)[C@@H](O)[C@@H]1O	43000 M⁻¹
NCC1O[C@H](O[C@H]2[C@@H](O)[C@H](O[C@H]3[C@H](O)[C@@H](N)C[C@@H](N)[C@@H]3O[C@H]3O[C@H](CN)[C@@H](O)[C@H](O)[C@H]3N)O[C@@H]2CSCCOCCSSCCOCCSC[C@H]2O[C@@H](O[C@H]3[C@H](O)[C@@H](N)C[C@@H](N)[C@@H]3O[C@H]3O[C@H](CN)[C@@H](O)[C@H](O)[C@H]3N)[C@H](O)[C@@H]2O[C@@H]2OC(CN)[C@H](O)[C@@H](O)[C@@H]2N)[C@H](N)[C@@H](O)[C@@H]1O (stereo not given in full)	3800 M⁻¹
